{"source": "paper PMC9569450", "about": "“Dual Effect of Tryptamine on Prostate Cancer Cell Growth Regulation: A Pilot Study” (International Journal of Molecular Sciences, 2022)", "key": {"PC-3 cells [1]": {"tested_on": "PC-3 cells", "assay": "MTT cell proliferation assay, PC-3", "type": "cell-based, human", "conditions": "Homo sapiens, PC-3, 48 h treatment in FBS-free medium, read-out: IC50 Value (Mean ± SD mM) PC-3", "procedure": "PC-3, LNCaP, RWPE-1, HepG2, A549, and PANC-1 cells were purchased from the National Collection of Authenticated Cell Cultures (Shanghai, China). […] All the above cell cultures were supplied with 10% fetal bovine serum and 1% penicillin-streptomycin. RWPE-1 cells were cultured in keratinocyte serum-free medium (K-SFM, Gibco, New York, NY, USA) supplemented with 50 mg/L bovine pituitary extract and 5 μg/L epidermal growth factor (EGF). All cell lines were grown in a humidified atmosphere of 5% CO2 at 37 °C.\nCells were seeded in 100 μL complete medium in a 96-well plate, at a density of 10,000 cells/well for LNCaP and 5000 cells/well for other cells. Cells were pre-incubated for 24 h to allow for adherence before removal of complete medium and treatment with various concentrations of compounds in fetal bovine serum (FBS)-free medium for 48 h. After treatment, 20 μL/well MTT (5 mg/mL) was added and incubated for 3–4 h at 37 °C, and then 100 μL/well DMSO was added for MTT assay. The plate was shaken on an orbital shaker for 10 min. Absorbance was measured using a microplate reader at 492 nm for the MTT assay (performed in triplicates). Cell viability was normalized to control. Half inhibitory concentration (IC50) was calculated by SPSS Statistics 17.0. […] The experiments were independently repeated two to three times."}, "[2]": {"tested_on": "PC-3, LNCaP, RWPE-1, A549, PANC-1, and HepG2 cells", "assay": "MTT cell proliferation assay, all cell lines", "type": "cell-based", "conditions": "all cell lines tested; read-out: IC50 values for all six cell lines tested", "procedure": "PC-3, LNCaP, RWPE-1, HepG2, A549, and PANC-1 cells were purchased from the National Collection of Authenticated Cell Cultures (Shanghai, China). PC-3 and A549 cells were cultured in F-12K Nutrient Mixture (Gibco, New York, NY, USA), LNCaP in RPMI 1640 (Gibco, New York, NY, USA), PANC-1 in Dulbecco’s Modified Eagle Medium (DMEM, Gibco, New York, NY, USA), and HepG2 in minimal essential medium (MEM, Gibco, New York, NY, USA). All the above cell cultures were supplied with 10% fetal bovine serum and 1% penicillin-streptomycin. RWPE-1 cells were cultured in keratinocyte serum-free medium (K-SFM, Gibco, New York, NY, USA) supplemented with 50 mg/L bovine pituitary extract and 5 μg/L epidermal growth factor (EGF). All cell lines were grown in a humidified atmosphere of 5% CO2 at 37 °C.\nCells were seeded in 100 μL complete medium in a 96-well plate, at a density of 10,000 cells/well for LNCaP and 5000 cells/well for other cells. Cells were pre-incubated for 24 h to allow for adherence before removal of complete medium and treatment with various concentrations of compounds in fetal bovine serum (FBS)-free medium for 48 h. After treatment, 20 μL/well MTT (5 mg/mL) was added and incubated for 3–4 h at 37 °C, and then 100 μL/well DMSO was added for MTT assay. The plate was shaken on an orbital shaker for 10 min. Absorbance was measured using a microplate reader at 492 nm for the MTT assay (performed in triplicates). Cell viability was normalized to control. Half inhibitory concentration (IC50) was calculated by SPSS Statistics 17.0. The combination index (CI) isobologram equation was used for the quantitative determination of the interaction between two compounds [62]:(1) Combination index CI =CA,x/ICx,A+CB,x/ICx,B where CA,x and CB,x are compound concentrations that […], and ICx,A and ICx,B are compound concentrations that provide the same effect when being used in combination. The experiments were independently repeated two to three times."}, "PC-3 cells [3]": {"tested_on": "PC-3 cells", "assay": "Cell viability of PC-3 cells after 24 h (Figure S1)", "type": "cell-based, human", "procedure": "Figure S1. Cell viability of PC-3 cell treated with various concentrations of tryptamine […]\nFigure S2. Liver function test results and effects of tryptamine and 3-HAA treatments on the tumor growth of PC-3 xenograft mouse model. (A and B) Appearance and aspartate aminotransferase (AST, U/L) value of the liver of PC-3 xenograft mice received intraperitoneal administration of tryptamine (80 mg/kg, n = 6) and intratumoral administration of tryptamine (1 mg/100 mm3, n = 5), respectively. Size of the tumors of PC-3 xenograft mice received intratumoral administration of (C and E) tryptamine (1 mg/100 mm3) and 3-HAA (200 mg/kg) and intraperitoneal administration of (D and F) tryptamine (80 mg/kg) and 3-HAA (200 mg/kg), respectively.\nFigure S3. Heatmap overview of altered PC-3 cell metabolic profiles in LC-MS (A) positive and (B) negative ion modes before and after tryptamine treatment.\nFigure S4. MS/MS analyses of the discriminant metabolites in panels.\nFigure S1. Cell viability of PC-3 cell treated with various concentrations of tryptamine for 24h. […]"}, "[4]": {"assay": "UPLC-HRMS detection of tryptamine in serum or tissue samples of xenograft mice", "type": "in vivo, BALB/c nude mice", "procedure": "However, intraperitoneal injection of tryptamine promoted the growth of PC-3 xenograft tumors in nude mice. […] Additionally, it has been reported that the intraperitoneal injections of 10 mg/kg 5-HT increased tumor weight by almost 60% using an orthotopic mouse model of ovarian cancer. As is known, both 5-HT and tryptamine in the blood can be taken up and carried by platelets and released during degranulation, and also various tryptamine-related compounds are substrates of the platelet 5-HT transporter. Thus, the tumor growth promoting effect of intraperitoneal treatment of tryptamine in our study might be similar to the effect of 5-HT, which has long been thought to be related to tumor progression."}, "PC-3 xenograft tumors": {"tested_on": "PC-3 xenograft tumors", "assay": "PC-3 xenograft mouse model", "type": "in vivo", "procedure": "Five-week-old male BALB/c nude mice were purchased from Charles River Laboratories (Beijing, China) and raised in a temperature and humidity-controlled environment (25 ± 2 °C, 50% ± 10% humidity) with a standard 12 h light-dark cycle with food and water in cages under germ-free conditions (SCXK2021-0006). All procedures involving animals and their care were approved by the Institutional Animal Care and Use Committee of the Ocean University of China in accordance with institutional and National Institutes of Health guidelines (OUC-SMP-2022-01-01). PC-3 cells (4 × 10^6 dissolved in 150 μL PBS) were injected subcutaneously into the armpit area of each mouse. For the first treatment group, when tumors reached 50 mm^3, 80 mg/kg of tryptamine dissolved in normal saline with 0.1% formic acid was administered intraperitoneally once every other day for 32 days (n = 6). […] The control groups were administrated with the vehicle. The tumor volume (mm^3) was calculated based on the formula:(2) Tumor volume (mm^3)=length×width^2/2"}}}
{"smiles": "NCCc1c[nH]c2ccccc12", "note": "[Tryptamine]", "values": [{"measurement": "IC50", "setting": "PC-3 cells [1]", "value": "0.24 ± 0.01", "unit": "mM"}, {"measurement": "IC50", "setting": "[2]", "value": "≤ 900", "unit": "µM"}, {"measurement": "viability at 300 µM", "setting": "PC-3 cells [3]; Homo sapiens, PC-3, 0.3 mM, read-out: percentage of viable cells", "value": 75, "unit": "%"}, {"measurement": "cell viability compared to the control group", "setting": "PC-3 cells [3]; PC-3, 0.15 mM", "value": "no significant change in cell viability"}, {"measurement": "tryptamine in serum or tissue samples", "setting": "[4]; intraperitoneal treatment group", "value": "not detected"}, {"measurement": "tryptamine in tissue samples", "setting": "[4]; intratumoral treatment group", "value": "apparent peak"}, {"measurement": "tumor volume and weight compared with the control group", "setting": "PC-3 xenograft tumors; intraperitoneal, 80 mg/kg once every other day for 32 days", "value": "increased tumor volume and weight"}, {"measurement": "adverse effects or toxicity in the liver", "setting": "PC-3 xenograft tumors; intratumoral, 1 mg/100 mm^3", "value": "without obvious signs of adverse effects or toxicity in the liver"}, {"measurement": "tumor growth, tumor volume and weight", "setting": "PC-3 xenograft tumors; intratumoral, 1 mg/100 mm^3 every day for 16 days", "value": "significant tumor growth delay"}]}
